Values of other authors as cited in patent publication US8496977B2, “Natural extract from whole banana fruit (Musa Spp)” (priority 2009, dated 2013).

How the values were obtained:
[1] = tested on: eicosanoid synthesis; conditions: by modulating eicosanoid synthesis

NCCc1ccc(O)c(O)c1 [dopamine]
radical-scavenging rate (compared with catechin and gallocatechin gallate): faster radical-scavenging rate than catechin
antioxidative potency (compared with other antioxidants): greater than that of BHA, BHT, flavonoids, glutathione, and catechin
protection against intestinal mucosal injury [1]: protect against intestinal mucosal injury
